Assay results from patent US7601687B2, “Mechanism for identifying drugs for the treatment of type II diabetes” (BioCrine AB, priority 2006, dated 2009).
“Also recorded” adds a separate entry of the source.

Tests used:
rat βGK promoter = assay: On-line monitoring of βGK promoter-driven GFP expression (prβGK.GFP) in transfected HIT-T15 cells, islet cells and islets; assay type: cell-based, hamster (HIT-T15), rat (islet cells); conditions: for effect of inhibitor on insulin-stimulated βGK transcription / promoter activity: 5 mU/ml insulin 5 min, 150 nM BIM, 20 μM PD98059, 10 μM PD169316, 100 μM HNMPA-(AM)3, 400 nM AC, FIG. 5; for effect of inhibitor on insulin-stimulated βGK transcription / promoter activity / effect of inhibitor on insulin-stimulated βGK promoter activity (GFP) in the same co-transfected cell: 25 μM LY294002, 10 nM rapamycin; for effect of inhibitor on insulin-stimulated βGK promoter activity (GFP) in the same co-transfected cell: 5 mU/ml insulin, 400 nM AC, 100 μM HNMPA-(AM)3
Description: Construction of prIns1.GFP has been described earlier (Leibiger et al., 1998a). Vector prIns1.DsRed was generated by exchanging the EGFP-expression cassette versus the DsRed-expression cassette obtained from pDsRed1-1 (Clontech). Plasmid prβGK.GFP (i.e. prβGK-278.GFP) was generated by exchanging the CAT-SV40pA-expression cassette of prβGK-278.CAT (Leibiger et al., 1994a) versus the EGFP-bGHpA-expression cassette obtained from pRcCMVI.GFP (Moede et al., 1999). […] All vector constructions were verified by DNA sequence analysis. […] Expression constructs pCMV5.PKBα, pCMV5.PKBαΔ308/437, pCMV5.PDK1 and pCMV5.PDK1-antisense were kindly provided by Drs. P. Cohen and D. R. Alessi (MRC Phosphorylation Unit, University of Dundee, UK).
HIT cells were reported to show glucose responsiveness at subphysiological concentrations between 0.1 and 2 mM (Sharma et al., 1995). HIT cells were grown in RPMI 1640 medium supplemented with 100 units/ml penicillin, 100 μg/ml streptomycin, 2 mM glutamine and 10% fetal calf serum at 5% CO2 and 37° C. Pancreatic islets were isolated from normally fed male Wistar rats and from mice by collagenase digestion. Isolated islets were incubated overnight at 5% CO2 and 37° C. in RPMI 1640 medium, supplemented as described above. Transfection of HIT-T15 and islet cells was performed overnight by the lipofectamine technique in RPMI 1640 medium, without serum and antibiotics. For on-line monitoring, cells were grown and transfected on 24-mm glass coverslips. Following transfection, HIT cells were cultured for 12-18 h in RPMI 1640 medium containing 0.1 mM glucose, 10% fetal calf serum and supplemented as above. Before stimulation, islets and islet cells were incubated for 2 h in RPMI 1640 medium, supplemented as above but containing 3 mM glucose. All expression constructs were prepared using the Qiagen Plasmid Maxi Kit (Qiagen), except those used to produce the adenoviruses which where purified by ultracentrifugation via a CsCI-gradient (as described in Sambrook et al, 1989).
Islets were transduced with Ad.rβGK.GFP or Ad.CMV.GFP by incubating 50 islets with 1 ml virus-containing medium for 90 min at 37° C. and 5% CO2. Following transduction, islets were washed 3 times with PBS and cultured further in RPMI 1640 medium. Islets were stimulated 40-72 h after transduction, as described below and analyzed by laser-scanning confocal microscopy.
All experiments were performed in RPMI 1640 medium, supplemented as above. Protein kinase inhibitors, antibodies or nifedipine were added to the culture medium 30 min prior to stimulation and were kept in the medium throughout stimulation. After stimulation islets, islet cells and HIT cells were cultured further at substimulatory glucose concentrations (0.1 mM for HIT cells and 3 mM for islets and islet cells). For RNA-analysis, islets and cells were harvested 60 min after start of stimulation, if not indicated otherwise. For analysis of protein kinase activities or tyrosine phosphorylation, cells were harvested immediately following stimulation.
Detection of fluorescence by digital imaging fluorescence microscopy was performed as described previously (Leibiger et al., 1998a; Leibiger et al., 1998b). Briefly, transfected cells were grown on 24-mm glass coverslips. After stimulation the coverslips were placed into a perifusion chamber which was mounted on an inverted microscope (Zeiss Axiovert 135TV). Temperature was kept at 37° C. and the cells were perfused with RPMI 1640 medium. The objective lens used was a Zeiss-Fluar ×40/1.30 oil Imm Korr. Fluorescence imaging was performed with a cooled charged-coupled device camera (CH250 with KAF 1400, Photometrics, Tucson, Ariz.) connected to an imaging system (Inovision) with fluorescence excitation from a SPEX fluorolog-2 CM1T11I spectrofluorometer (Spex Industries).

PKB/c-Akt = PKB/c-Akt Ser473 phosphorylation and PKB activity in HIT cells; assay type: cell-based, hamster
Description: Phosphorylated PKB/c-Akt was analyzed by employing the PhosphoPlus Akt(Ser473) Antibody Kit (New England Biolabs) according to the manufacturer's instructions. Briefly, HIT cells were cultured as described above. […] Following centrifugation of the lysate for 20 min at 14,000×g and 4° C., aliquotes of the supernatant containing 200 μg protein were separated by SDS-PAGE over a 7.5% polyacrylamide gel. Proteins were electro-transferred onto PVDF-membrane (Immobilon-P, Millipore) overnight at stabilized 125 mA. Immunoblotting was performed with either rabbit polyclonal Phospho-Akt(Ser473) antibody or with rabbit polyclonal […] antibody and HRP-conjugated secondary antibodies. For detection the membrane was incubated with LumiGLO containing peroxide and exposed to X-ray film.
Analysis of PKB/Akt activity was performed employing the Akt1-PKBα e Immunoprecipitation Kinase Assay Kit (Upstate Biotech.) according to the manufacturer's instructions. Lysates of HIT cells containing 1 mg of protein were subjected to immunoprecipitation. The immunoprecipitate was used for PKB/Akt kinase assay using γ[^32P]-ATP and Akt/SGK-specific substrate peptide. Phosphorylated substrates were blotted onto phosphocellulose P81 paper and analyzed by LSC.

| Molecule | effect of inhibitor on insulin-stimulated βGK transcription / promoter activity (rat βGK promoter) | effect of inhibitor on insulin-stimulated βGK promoter activity (GFP) in the same co-transfected cell (rat βGK promoter) | effect on glucose-induced activation of PKB (PKB/c-Akt; FIG. 7E, PKB activity 10 min after start of glucose stimulation) | βGK promoter-driven GFP fluorescence upon insulin stimulation (rat βGK promoter; 5 mU insulin per ml for 5 min, substimulatory glucose) | amount of exogenous insulin required to gain an effect on βGK promoter activation (rat βGK promoter; transfected HIT-T15 cells, supplemented culture medium (FIG. 4B)) | time following stimulation at which PKB activation (Ser473 phosphorylation) was observed (PKB/c-Akt; 16.7 mM glucose or 5 mU insulin/ml at substimulatory glucose) |
| --- | --- | --- | --- | --- | --- | --- |
| CC(=O)OCOC(c1ccc2ccccc2c1)P(=O)(OCOC(C)=O)OCOC(C)=O (centres unmarked) [HNMPA-(AM)3] | sensitive | abolished | abolished |  |  |  |
| autocamtide-2 related inhibitory peptide | altered neither | no effect |  |  |  |  |
| insulin |  |  |  | increase; also recorded: elevation | 20 μU per ml | 2 min |
